Results on 6 compounds are retold here after patent US20100285957A1, “THIAZOLYLOXYPHENYLAMIDINES OR THIADIAZOLYLOXYPHENYLAMIDINES AND THEIR USE AS FUNGICIDES” (Bayer CropScience AG, priority 2007, published 2010).

Data set [1] concerns Blumeria graminis f.sp. hordei. Description: Blumeria graminis test (barley)/protective. It is filed as in vivo. Conditions: 168 h, 1000 ppm active substance, protective, evaluation 7 days after inoculation, read-out: degree of effectiveness. As for the experimental part:
Blumeria graminis Test (Barley)/Protective
(§1) To prepare a suitable active substance composition, 1 part by weight of active substance is mixed with the given amounts of solvent and emulsifier and the concentrate is diluted to the desired concentration using water.
For the testing of protective effectiveness, young plants are sprayed with the active substance composition in the application rate given.
After the spray coating has been dried on, the plants are dusted with spores of Blumeria graminis f.sp. hordei.
The plants are placed in a greenhouse at a temperature of approximately 20° C. and a relative humidity of approximately 80%, in order to encourage the development of mildew pustules.
Evaluation is carried out 7 days after the inoculation. In this connection, 0% means a degree of effectiveness corresponding to that of the control, while a degree of effectiveness of 100% means that no infestation is observed.

The test system of a further data set is Phakopsora pachyrhizi. The data set is described as follows: Phakopsora test (soya)/protective. Conditions: 264 h, 100 ppm active substance, protective, evaluation 11 days after inoculation, read-out: degree of effectiveness. It is filed as in vivo. As for the experimental part:
Phakopsora Test (Soya)/Protective
as §1
For the testing of protective effectiveness, young plants are sprayed with the active substance composition in the application rate given. After the spray coating has been dried on, the plants are inoculated with an aqueous suspension of the spores of Phakopsora pachyrhizi and then remain in an incubation chamber at approximately 20° C. and 80% relative humidity for 1 day.
Evaluation is carried out 11 days after the inoculation. In this connection, 0% means a degree of effectiveness corresponding to that of the control, while a degree of effectiveness of 100% means that no infestation is observed.

The test system of a further data set is Alternaria solani. The data set is described as follows: Alternaria test (tomato)/protective. It is filed as in vivo. Conditions: 168 h, 500 ppm active substance, protective, evaluation 7 days after inoculation, read-out: degree of effectiveness. As for the experimental part:
Alternaria Test (Tomato)/Protective [table] To prepare a suitable active substance composition, 1 part by weight of active substance is mixed with the given amounts of solvent and emulsifier and the concentrate is diluted to the desired concentration using water. For the testing of protective effectiveness, young tomato plants are sprayed with the active substance composition in the application rate given. 1 day after the treatment, the plants are inoculated with a suspension of the spores of Alternaria solani and then stand at 100% relative humidity and 20° C. for 24 h. Subsequently, the plants stand at 96% relative humidity and a temperature of 20° C. Evaluation is carried out 7 days after the inoculation. In this connection, 0% means a degree of effectiveness corresponding to that of the control, while a degree of effectiveness of 100% means that no infestation is observed.

Another data set concerns Uromyces appendiculatus. Description: Uromyces test (beans)/protective. The format is in vivo. The conditions noted are these: 240 h, 100 ppm active substance, protective, evaluation 10 days after inoculation, read-out: degree of effectiveness. As for the experimental part:
Uromyces Test (Beans)/Protective [table] To prepare a suitable active substance composition, 1 part by weight of active substance is mixed with the given amounts of solvents and emulsifier and the concentrate is diluted to the desired concentration using water. For the testing of protective effectiveness, young plants are sprayed with the active substance composition in the application rate given. After the spray coating has been dried on, the plants are inoculated with an aqueous suspension of the spores of the bean rust pathogen Uromyces appendiculatus and then remain in an incubation chamber at approximately 20° C. and 100% relative humidity for 1 day. The plants are then placed in a greenhouse at approximately 21° C. and a relative humidity of approximately 90%. Evaluation is carried out 10 days after the inoculation. In this connection, 0% means a degree of effectiveness corresponding to that of the control, while a degree of effectiveness of 100% means that no infestation is observed.

The next data set concerns Sphaerotheca fuliginea. Description: Sphaerotheca test (cucumber)/protective. It is filed as in vivo. Conditions: Podosphaera fuliginea, 168 h, 100 ppm active substance, protective, evaluation 7 days after inoculation, read-out: degree of effectiveness. As to the method:
Sphaerotheca Test (Cucumber)/Protective [table] To prepare a suitable active substance composition, 1 part by weight of active substance is mixed with the given amounts of solvents and emulsifier and the concentrate is diluted to the desired concentration using water. For the testing of protective effectiveness, young plants are sprayed with the active substance composition in the application rate given. After the spray coating has been dried on, the plants are inoculated with an aqueous suspension of spores of Sphaerotheca fuliginea. The plants are then placed in a greenhouse at approximately 23° C. and a relative humidity of approximately 70%. Evaluation is carried out 7 days after the inoculation. In this connection, 0% means a degree of effectiveness corresponding to that of the control, while a degree of effectiveness of 100% means that no infestation is observed.

Data set [2] relates to Puccinia recondita var. tritici. The data set is described as follows: Puccinia test (wheat)/protective. It is filed as in vivo. Conditions: 240 h, 1000 ppm active substance, protective, evaluation 10 days after inoculation, read-out: degree of effectiveness. As for the experimental part:
Puccinia Test (Wheat)/Protective
as §1
For the testing of protective effectiveness, young plants are sprayed with the active substance composition in the application rate given. After the spray coating has been dried on, the plants are sprayed with a suspension of the conidia of Puccinia recondita var. tritici. The plants remain in an incubation chamber at 20° C. and 100% relative humidity for 48 hours.
The plants are then placed in a greenhouse at a temperature of approximately 20° C. and a relative humidity of 80%, in order to encourage the development of rust pustules.
Evaluation is carried out 10 days after the inoculation. In this connection, 0% means a degree of effectiveness corresponding to that of the control, while a degree of effectiveness of 100% means that no infestation is observed.

Another data set concerns Pyrenophora teres. Description: Pyrenophora teres test (barley)/protective. It is filed as in vivo. The conditions noted are these: 500 ppm active substance, protective, evaluation 7-9 days after inoculation, read-out: degree of effectiveness. As to the method:
Pyrenophora teres Test (Barley)/Protective
as §1
For the testing of protective effectiveness, young barley plants are sprayed with the active substance composition in the application rate given. 1 day after the treatment, the plants are inoculated with an aqueous suspension of the spores of Pyrenophora teres and then remain at 100% relative humidity and 20° C. for 48 h. Subsequently, the plants are placed in a greenhouse at 80% relative humidity and a temperature of 20° C.
Evaluation is carried out 7-9 days after the inoculation. In this connection, 0% means a degree of effectiveness corresponding to that of the control, while a degree of effectiveness of 100% means that no infestation is observed.

Where two headings read alike, the source gives them in different places. Some results are limits rather than exact numbers.

With `CCN(C)C=Nc1cc(C)c(Oc2nc(C3(Cl)CC3)c(Cl)s2)cc1C` [Compound 7, N′-(4-{[5-Chloro-4-(1-chlorocyclopropyl)-1,3-thiazol-2-yl]oxy}-2,5-dimethylphenyl)-N-ethyl-N-methylimidoformamide], the pest or weed control at 1000 ppm in data set [1] and in data set [2] was ≥ 70% each time. The figures for the pest or weed control at 100 ppm in the data set with Phakopsora pachyrhizi, with Uromyces appendiculatus and in the data set on Sphaerotheca fuliginea were ≥ 80%, ≥ 70% and ≥ 70%, respectively. For the same compound, the pest or weed control at 500 ppm in the data set with Alternaria solani and with Pyrenophora teres was ≥ 70% throughout. The compound also displayed a logP in the data set “physchem” (pH 2.3) of 1.82.

Consider `Cc1cc(Oc2nc(C3(Cl)CC3)c(Cl)s2)c(C)cc1/N=C/N1CCCCC1` [Compound 8, 4-{[5-Chloro-4-(1-chlorocyclopropyl)-1,3-thiazol-2-yl]oxy}-2,5-dimethyl-N-[(1E)-piperidin-1-ylmethylidene]aniline], for which the pest or weed control at 1000 ppm in data set [1] and in data set [2] was ≥ 70% in each case. Moreover, the pest or weed control at 100 ppm in the data set on Phakopsora pachyrhizi was ≥ 80%; with Uromyces appendiculatus, ≥ 70%; with Sphaerotheca fuliginea it was ≥ 70%. Moreover, the pest or weed control at 500 ppm with Alternaria solani and with Pyrenophora teres was ≥ 70% in each case. Besides, the logP in the data set “physchem” was found to be 6.02; in the data set “physchem” (pH 2.3), 2.47.

For `CCN(C)C=Nc1cc(C)c(Oc2nc(C3(C)CC3)ns2)cc1C` [Compound 9, N′-(2,5-Dimethyl-4-{[3-(1-methylcyclopropyl)-1,2,4-thiadiazol-5-yl]oxy}phenyl)-N-ethyl-N-methylimidoformamide], the pest or weed control at 1000 ppm in data set [1] and in data set [2] was ≥ 70% each time. Moreover, the values for the pest or weed control at 100 ppm in the data set on Phakopsora pachyrhizi, with Uromyces appendiculatus and with Sphaerotheca fuliginea were ≥ 80%, ≥ 70% and ≥ 70%, respectively. Moreover, the pest or weed control at 500 ppm in the data set on Alternaria solani and in the data set on Pyrenophora teres was ≥ 70% each time. Moreover, in “physchem” (pH 2.3), the lipophilicity (logP) was found to be 1.94.

Regarding `CCN(C)C=Nc1cc(C)c(Oc2nc(C3CC3C)ns2)cc1C` (centres unmarked) [Compound 14, N′-(2,5-Dimethyl-4-{[3-(2-methylcyclopropyl)-1,2,4-thiadiazol-5-yl]oxy}phenyl)-N-ethyl-N-methylimidoformamide], the pest or weed control at 1000 ppm in data set [1] and in data set [2] was ≥ 70% throughout. Also, the pest or weed control at 100 ppm with Phakopsora pachyrhizi was ≥ 80%; with Uromyces appendiculatus, ≥ 70%; with Sphaerotheca fuliginea it was ≥ 70%. Besides, the pest or weed control at 500 ppm in the data set on Alternaria solani and with Pyrenophora teres was ≥ 70% each time. The same compound had a logP in the data set “physchem” (pH 2.3) of 1.96.

`Cc1cc(Oc2nc(C3CC3C)ns2)c(C)cc1N=CN(C)C(C)C` (centres unmarked) [Compound 15, N′-(2,5-Dimethyl-4-{[3-(2-methylcyclopropyl)-1,2,4-thiadiazol-5-yl]oxy}phenyl)-N-methyl-N-(1-methylethyl)imidoformamide]: the pest or weed control at 1000 ppm in data set [1] and in data set [2] was ≥ 70% in each case. Moreover, the pest or weed control at 100 ppm with Phakopsora pachyrhizi was ≥ 80%; in the data set on Uromyces appendiculatus it was ≥ 70%; in the data set with Sphaerotheca fuliginea, ≥ 70%. Further, the pest or weed control at 500 ppm in the data set on Alternaria solani and in the data set on Pyrenophora teres was ≥ 70% in each case. Also, the log partition coefficient (logP) in the data set “physchem” (pH 2.3) came to 1.74.

For the compound `CCN(C)C=Nc1cc(C)c(Oc2nc(C3(C)CC3)c(Cl)s2)cc1C` [Compound 21, N′-(4-{[5-Chloro-4-(1-methylcyclopropyl)-1,3-thiazol-2-yl]oxy}-2,5-dimethylphenyl)-N-ethyl-N-methylimidoformamide], the pest or weed control at 1000 ppm in data set [1] and in data set [2] was ≥ 70% throughout. For the same compound, the pest or weed control at 100 ppm in the data set with Phakopsora pachyrhizi was ≥ 80%; in the data set with Uromyces appendiculatus, ≥ 70%; in the data set with Sphaerotheca fuliginea, ≥ 70%. For the same compound, the pest or weed control at 500 ppm in the data set on Alternaria solani and with Pyrenophora teres was ≥ 70% in each case. The lipophilicity (logP) worked out at 6 in the data set “physchem” and 1.97 in “physchem” (pH 2.3).

The term logP denotes a log measure of how a compound divides between an organic and an aqueous phase. A lower logP goes with a more hydrophilic compound.
